These results are taken from ChEMBL document CHEMBL3352350, “Syntheses and structure-activity relationships in cytotoxicities of 13-substituted quaternary coptisine derivatives” (Eur J Med Chem, 2014).

The nature of assay [1]: Cytotoxicity against human Bel7402 cells assessed as growth inhibition rate after 96 hrs by MTT assay. The format is functional, cell-based. The note with it: Bel-7402, 96 h. (Tetrazolium assays rely on reduction of a dye to a coloured formazan, in cell work by metabolically active cells.)
In assay [2] the test system is A549. Nature of the assay: Cytotoxicity against human A549 cells assessed as growth inhibition rate after 96 hrs by MTT assay. Type of assay: functional, cell-based. The note with it: A549, 96 h.
Assay [3] is described as follows: Cytotoxicity against human HCT8 cells assessed as growth inhibition rate after 96 hrs by MTT assay. The format is functional, cell-based. The note with it: HCT-8, 96 h.
Assay [4] can be described thus: Cytotoxicity against human Bel7402 cells assessed as growth inhibition rate at 0.1 to 100 umol/L after 96 hrs by MTT assay. The format is functional, Bel-7402.
The nature of assay [5]: Cytotoxicity against human C33A cells assessed as growth inhibition rate at 0.1 to 100 umol/L after 96 hrs by MTT assay. The format is functional, C-33-A.
Assay [6] deals with A549. As to the kind of experiment: Cytotoxicity against human A549 cells assessed as growth inhibition rate at 0.1 to 100 umol/L after 96 hrs by MTT assay. Type of assay: functional.
A short description of assay [7]: Cytotoxicity against human C33A cells assessed as growth inhibition rate after 96 hrs by MTT assay. The format is functional, cell-based. The note with it: C-33-A.
The nature of assay [8]: Cytotoxicity against human HCT8 cells assessed as growth inhibition rate at 0.1 to 100 umol/L after 96 hrs by MTT assay. The format is functional, HCT-8.
The nature of assay [9]: Cytotoxicity against human BGC823 cells assessed as growth inhibition rate after 96 hrs by MTT assay. Type of assay: functional, cell-based. The note with it: BGC-823, 96 h.

Where only a bound is given, the exact number is not on record here.

In general, IC50 refers to the concentration at which inhibition is half-maximal. In the case of `C1=C2c3cc4c(cc3CCN2Cc2c1ccc1c2OCO1)OCO4`, the IC50 (in assay [1]; in the assay with A549 [2]; in assay [3]; in assay [7]) was > 5 µg/mL in each case. Also, the “growth inhibition (GI)” value in assay [4] was 27.27%; in [5] it was -10.65%; in the assay with A549 [6], 32.09%; in [8], 30.88%.
For the compound `Cc1c2[n+](cc3c4c(ccc13)OCO4)CCc1cc3c(cc1-2)OCO3.[Cl-]`, the IC50 (in [1]; in the assay with A549 [2]; in assay [3]; in [7]) was > 5 µg/mL throughout. Further, the “growth inhibition (GI)” value is on record as 2.43% in assay [4], -7.22% in [5], 42.83% in the assay on A549 [6] and 35.62% in assay [8].
On to `CCc1c2[n+](cc3c4c(ccc13)OCO4)CCc1cc3c(cc1-2)OCO3.[Cl-]`, for which the IC50 (in assay [1]; in the assay on A549 [2]; in assay [3]; in assay [7]) was > 5 µg/mL throughout. Also, the “growth inhibition (GI)” value in [4] is on record as 10.19%; in assay [5] it was -7.45%; in the assay on A549 [6], 41.74%; in assay [8], 39.7%.
Turning to `CCCc1c2[n+](cc3c4c(ccc13)OCO4)CCc1cc3c(cc1-2)OCO3.[Cl-]`, the IC50 (in assay [1]; in the assay on A549 [2]; in [3]; in assay [7]) was > 5 µg/mL each time. In addition, the “growth inhibition (GI)” value is on record as -23.7% in [4], -7.69% in [5], 45.12% in the assay on A549 [6] and 40.68% in assay [8].
For the compound `CCCCc1c2[n+](cc3c4c(ccc13)OCO4)CCc1cc3c(cc1-2)OCO3.[Cl-]`, the IC50 (in [1]; in the assay on A549 [2]; in assay [3]; in assay [7]) was > 5 µg/mL throughout. In addition, the “growth inhibition (GI)” value in [4] is reported as 21.81%; in assay [5] it was -6.66%; with A549 [6] it was 32.79%; in assay [8], 32.57%.
Regarding `CCCCCc1c2[n+](cc3c4c(ccc13)OCO4)CCc1cc3c(cc1-2)OCO3.[Cl-]`, the IC50 in [1] is > 5 µg/mL; with A549 [2], > 5 µg/mL; in assay [3] it was 6.93 µM; in assay [7], > 5 µg/mL. The “growth inhibition (GI)” value in [4] is 5.82%; in [5] it was -5.79%; in the assay with A549 [6] it was 49.34%; in [8], 59.02%.
As for `CC(C)CCc1c2[n+](cc3c4c(ccc13)OCO4)CCc1cc3c(cc1-2)OCO3.[Cl-]`, the IC50 (in assay [1]; in the assay with A549 [2]; in assay [3]; in assay [7]) was > 5 µg/mL throughout. The “growth inhibition (GI)” value was -2.18% in assay [4], 48.99% in assay [5], 38.49% in the assay with A549 [6] and 30.75% in [8].
Consider `CCCCCCc1c2[n+](cc3c4c(ccc13)OCO4)CCc1cc3c(cc1-2)OCO3.[Cl-]`, for which the IC50 in [1] is 3.05 µM; in the assay with A549 [2], 5.57 µM; in [3], 6.55 µM; in assay [7], > 5 µg/mL. In addition, the “growth inhibition (GI)” value in assay [4] was determined as 74.26%; in [5] it was 52.51%; in the assay on A549 [6], 60.71%; in assay [8], 59.24%.
With `CCCCCCCc1c2[n+](cc3c4c(ccc13)OCO4)CCc1cc3c(cc1-2)OCO3.[Cl-]`, the IC50 in assay [1] came out at 1.92 µM; in the assay on A549 [2], 2.58 µM; in assay [3], 5.86 µM; in assay [7] it was 6.94 µM. The “growth inhibition (GI)” value in assay [4] came out at 86.6%; in assay [5], 63.75%; in the assay on A549 [6], 71.89%; in [8], 61.02%.
`CCCCCCCCc1c2[n+](cc3c4c(ccc13)OCO4)CCc1cc3c(cc1-2)OCO3.[Cl-]`: the IC50 in assay [1] came to 1.43 µM; in the assay on A549 [2], 1.88 µM; in [3], 3.33 µM; in assay [7] it was 7.31 µM. The “growth inhibition (GI)” value in [4] is recorded as 89.32%; in assay [5] it was 63.28%; with A549 [6], 73.99%; in [8], 65.54%.
`CCCCCCCCCc1c2[n+](cc3c4c(ccc13)OCO4)CCc1cc3c(cc1-2)OCO3.[Cl-]`: the IC50 (in assay [1]; with A549 [2]; in [3]; in assay [7]) was > 5 µg/mL each time. For the same compound, the “growth inhibition (GI)” value in assay [4] was 43.46%; in [5] it was -16.26%; with A549 [6], 49.29%; in assay [8] it was 43.24%.
On to `CCCCCCCCCCc1c2[n+](cc3c4c(ccc13)OCO4)CCc1cc3c(cc1-2)OCO3.[Cl-]`, for which the 50% inhibitory concentration (IC50) in assay [1] amounted to 1.43 µM; in the assay on A549 [2] it was 1.83 µM; in [3], 1.81 µM; in assay [7], 4.31 µM. Further, the “growth inhibition (GI)” value was 89.98% in assay [4], 61.31% in assay [5], 75.26% in the assay with A549 [6] and 71.93% in assay [8].
Turning to `CCCCCCCCCCCCc1c2[n+](cc3c4c(ccc13)OCO4)CCc1cc3c(cc1-2)OCO3.[Cl-]`, the IC50 in [1] was 1.32 µM; in the assay with A549 [2] it was 0.59 µM; in [3], 1.03 µM; in [7], 1.43 µM. Besides, the “growth inhibition (GI)” value in assay [4] is 87.63%; in [5], 84.73%; with A549 [6], 94.03%; in assay [8], 91.28%.
For the compound `N#Cc1ccc(Cc2c3[n+](cc4c5c(ccc24)OCO5)CCc2cc4c(cc2-3)OCO4)cc1.[Cl-]`, the half-inhibitory concentration (IC50) (in assay [1]; with A549 [2]; in [3]; in assay [9]) was > 10 µM throughout. For the same compound, the entries for the “growth inhibition (GI)” value (in assay [4]; with A549 [6]; in assay [8]) were 4.03%, 2% and 3.69%, respectively.
Consider `O=[N+]([O-])c1ccc(Cc2c3[n+](cc4c5c(ccc24)OCO5)CCc2cc4c(cc2-3)OCO4)cc1.[Cl-]`, for which the IC50 (in assay [1]; with A549 [2]; in [3]; in [9]) was > 10 µM each time. Moreover, the “growth inhibition (GI)” value in assay [4] is -0.12%; in the assay on A549 [6], 2.27%; in [8] it was -3.7%.
Consider `COc1ccc(Cc2c3[n+](cc4c5c(ccc24)OCO5)CCc2cc4c(cc2-3)OCO4)cc1.[Cl-]`, for which the IC50 (in assay [1]; in the assay with A549 [2]; in assay [3]; in [9]) was > 10 µM throughout. The “growth inhibition (GI)” value came out at 5.99% in assay [4], 11.53% in the assay on A549 [6] and 10.21% in [8].
Consider `Cc1ccc(Cc2c3[n+](cc4c5c(ccc24)OCO5)CCc2cc4c(cc2-3)OCO4)cc1.[Cl-]`, for which the IC50 (in [1]; with A549 [2]; in assay [3]; in assay [9]) was > 10 µM throughout. In addition, the “growth inhibition (GI)” value in [4] was determined as 12.33%; in the assay with A549 [6], 26.58%; in [8] it was 15.16%.
Take `[Cl-].c1ccc2cc(Cc3c4[n+](cc5c6c(ccc35)OCO6)CCc3cc5c(cc3-4)OCO5)ccc2c1`: the IC50 (in [1]; with A549 [2]; in [3]; in assay [9]) was > 10 µM each time. The “growth inhibition (GI)” value was found to be 11.78% in assay [4], 32.22% in the assay with A549 [6] and 8.33% in assay [8].
Consider `CCOC(=O)c1c2[n+](cc3c4c(ccc13)OCO4)CCc1cc3c(cc1-2)OCO3.[Cl-]`, for which the IC50 (in [1]; in the assay on A549 [2]; in [3]; in [9]) was > 10 µM in each case. Moreover, the “growth inhibition (GI)” value came out at 4.05% in [4], 9.7% in the assay with A549 [6] and 4% in [8].
For the compound `CCOC(=O)Cc1c2[n+](cc3c4c(ccc13)OCO4)CCc1cc3c(cc1-2)OCO3.[Cl-]`, the IC50 (in assay [1]; in the assay with A549 [2]; in assay [3]; in assay [9]) was > 10 µM in each case. Moreover, the “growth inhibition (GI)” value was 8.43% in [4], 1.25% with A549 [6] and -9.3% in [8].
For the compound `[Cl-].c1c2c(cc3c1OCO3)-c1cc3ccc4c(c3c[n+]1CC2)OCO4` [COPTISINE CHLORIDE], the IC50 is > 14.1 µM in [1], > 14.1 µM in the assay with A549 [2], 5.59 µM in assay [3] and > 14.1 µM in [7]. Also, the “growth inhibition (GI)” value in [4] is listed as 12.24%; in assay [5] it was -10.71%; with A549 [6], 49.91%; in assay [8], 62.06%.
Take `O=c1[nH]cc(F)c(=O)[nH]1` [FLUOROURACIL]: the IC50 was 2.23 µM in [1], 6.69 µM in the assay on A549 [2], 3.54 µM in assay [3] and 4.61 µM in assay [7]. For the same compound, the “growth inhibition (GI)” value came to 78.43% in assay [4], 56.06% in assay [5], 72.25% in the assay with A549 [6] and 80.36% in assay [8].
